# Measurements from patent US20250319140A1, “COMPOSITION” (MEIJI CO., LTD., priority 2019, published 2025).
# What was measured:
# [1] = Weight gain suppressing effect in mice fed a high fat diet (body weight, weight gain, fat weight around the testes); assay type: in vivo; details: male C57BL/6J mice, compared with control group
# Method: Male, 8-week-old C57BL/6J mice were divided into 5 groups and fed with a normal diet (AIN-93M) (manufactured by Oriental Yeast Co., Ltd.) or a high fat diet (HFD-60) (manufactured by Oriental Yeast Co., Ltd.). The groups fed with a high fat diet were administered with fructo-oligosaccharide (hereinafter, also referred to as “FOS”), a propionic acid bacterium (Propionibacterium freudenreichii ET-3, Accession No. FERM BP-8115, hereinafter also referred to as “P bacterium”), or both FOS and a propionic acid bacterium (hereinafter, also referred to as “FOS+P bacterium”), and bred for 8 weeks. The group fed with the high fat diet, but not administered with FOS and a propionic acid bacterium was defined as a control group. Meioligo™ P (manufactured by Meiji Food Materia Co., Ltd.) was used as FOS, which was incorporated in the high fat diet in an amount of 5% by mass, and administered. A bacterial solution (living cells) activated and cultured in GAM bouillon (manufactured by Nissui Pharmaceutical Co., Ltd.) was washed with physiological saline, and then the number of propionic acid bacteria was adjusted to 5×10^9 cfu/mL to prepare a propionic acid bacterium. This bacterial solution was forcibly administered orally at a dose of 0.2 mL once daily every day from the start date to the end date of the test. To the groups not administered with the propionic acid bacterium (normal diet group, control group and FOS-administered group), physiological saline was forcibly administered orally at a dose of 0.2 mL once daily every day from the start date to the end date of the test. The body weight during the test period, the fat weight around the testes at the time of dissection, and the propionic acid concentration in feces collected at the end day of the test were measured, and the amount of weight gain was calculated from the body weights at the start and end of the test, and used for evaluation.
# [2] = test system: propionic acid production in the intestine; experiment: Propionic acid concentration in feces of high fat diet-fed mice, measured by HPLC; assay type: in vivo; details: male C57BL/6J mice, feces collected at the end day of the test, compared with control group, P <0.05 paired t-test for the combination
# Method: Male, 8-week-old C57BL/6J mice were divided into 5 groups and fed with a normal diet (AIN-93M) (manufactured by Oriental Yeast Co., Ltd.) or a high fat diet (HFD-60) (manufactured by Oriental Yeast Co., Ltd.). The groups fed with a high fat diet were administered with fructo-oligosaccharide (hereinafter, also referred to as “FOS”), a propionic acid bacterium (Propionibacterium freudenreichii ET-3, Accession No. FERM BP-8115, hereinafter also referred to as “P bacterium”), or both FOS and a propionic acid bacterium (hereinafter, also referred to as “FOS+P bacterium”), and bred for 8 weeks. The group fed with the high fat diet, but not administered with FOS and a propionic acid bacterium was defined as a control group. Meioligo™ P (manufactured by Meiji Food Materia Co., Ltd.) was used as FOS, which was incorporated in the high fat diet in an amount of 5% by mass, and administered. […] The body weight during the test period, the fat weight around the testes at the time of dissection, and the propionic acid concentration in feces collected at the end day of the test were measured, and the amount of weight gain was calculated from the body weights at the start and end of the test, and used for evaluation.
# The propionic acid concentration in the feces was measured by HPLC after extracting the propionic acid from the feces. […]
substance,measurement,setting,value
Propionibacterium freudenreichii ET-3 [propionic acid bacterium],body weight,"[1]; high fat diet (HFD-60), from the 6th week on of 8 weeks breeding",lower in the propionic acid bacterium-administered group than those in the control group
same,fat weight around the testes,"[1]; high fat diet, at dissection at end of 8-week test",low
same,amount of weight gain,"[1]; high fat diet, end day of the test (8 weeks) relative to initial body weight",low
same,propionic acid concentration in the feces,[2],clearly higher than that in the control group
